# What was measured:
# PI(4,5)P2 liposomes = experiment: Nitrocellulose membrane assay: adhered PI(4,5)P2 liposomes probed with GST fusion proteins; assay type: binding; conditions: dilution series, anti-GST antibodies, ECL
# Description: A. PI(4,5)P2 liposomes were first adhered to a nitrocellulose membrane, which was blocked by BSA; a dilution series of Rim15p, Eno2p, and Hxk1p, and a GST control were used to probe the membrane. The bound proteins were detected using the anti-GST antibodies and an enhanced chemiluminescence (“ECL”) kit.
# (§1) Therefore, six proteins, i.e., Rim15p, Eno2p, Hxk1p, Sps1p, Yg1059wp, and Gcn2p, were further tested for phosphoinositol binding using two types of standard assays (Williamson, 2000, Nat. Struct Biol. 7(10):834-7). For Rim15p, Eno2p, and Hxk1p, PI(4,5)P2 liposomes were first adhered to a nitrocellulose membrane, which was then blocked by BSA; different amounts of the GST fusion proteins and a GST control were used to probe the membrane, and bound proteins were detected using anti-GST antibodies. […] We also carried out the reverse assay for four GST fusion proteins, Rim15p, Sps1p, Yg1059wp, and Gcn2p (Guerra et al., 2000, Biosci. Rep. 20: 41). Different amounts of these purified proteins were spotted onto nitrocellulose filters and probed with the six different liposomes (FIG. 5B). The bound liposomes were detected using a horseradish peroxidase (“HRP”)-conjugated streptavidin.
# six different liposomes = experiment: Reverse membrane assay: proteins spotted on nitrocellulose probed with six liposomes; assay type: binding
# Method: B. A reverse assay was carried out to test for protein-lipid interactions. The proteins were prepared and spotted onto nitrocellulose filters in a dilution series and probed with the six different liposomes. As a control, the six liposomes were also added to the BSA-blocked membrane. After extensive washing, the bound liposomes were detected using an HRP-conjugated streptavidin and an ECL kit.
# C. Linear correlation between the binding signals and the amounts of Rim15p in a membrane assay. When liposome-binding signals of Rim15p from the membrane assay (FIG. 4B) were plotted against the concentration gradient of the spotted Rim15p, the binding signals of PI(4)P, PI(3,4)P2, PI(3)P, and PI(4,5)P2 correlated linearly with the amounts of Rim15p.
# as §1
# PI(3,4)P2 liposomes = experiment: Yeast proteome chip probed with PI(3,4)P2 liposomes; conditions: liposome binding signal on yeast proteome chip, Cy3-streptavidin detection
# Description: To identify PI-binding proteins in yeast, liposomes were used as probes because the liposome provides the most relevant physiological condition to assay the interactors. Six types of liposomes were used. Each contains phosphatidylcholine (“PC”) with 1% (w/w) N-(biotinoyl)-1,2-dihexadecanoyl-sn-glycero-3-phosphoethanolamine, triethylammonium salt (biotin DHPE). The biotinylated lipid serves as a label that can be detected by Cy3-streptavidin (21). In addition to PC, the five other liposomes contain either 5% (w/w) PI(3)P, PI(4)P, PI(3,4)P2, PI(4,5)P2, or PI(3,4,5)P3 (FIG. 3A).
# The protein-liposome interaction was assayed as follows. Appropriate amounts of each lipid in chloroform were mixed and dried under nitrogen. The lipid mixture was resuspended in TBS buffer by vortexing. The liposomes were created by sonication. Blocked proteome chips were washed three to five times in PBS buffer, and the extra liquid on the glass surface was removed by tapping the slides vertically on a KIMWIPE™. 200 μl of liposome solution was added to the proteome chip and immediately covered by a hydrophobic plastic cover slip (GRACE BIO-LAB™, USA). After trapped air bubbles were removed, the chip was incubated in a humidity chamber at RT for one hour. To remove the cover slip, the chip was immersed into large volume of PBS buffer (50 ml), so that the slip would float away. The chip was then moved to a second PBS bath (>50 ml) and washed 3×5 min with shaking at RT. After removing extra liquid on the surface of the chip, about 100 μl of Cy3 or Cy5 conjugated streptavidin (PIERCE™, USA; 1:2000 to 1:4000 dilution) was added to the surface and covered by a hydrophobic plastic cover slip (GRACE BIO-LABS™, USA). The chip was incubated for greater than 30 min in the dark at RT. The chip was then washed as described above. To completely remove the liquid on the chip, the chip was spun to dryness at 1500-2000 rpm for 5-10 min at RT.
# • 1. S. Fields, Y. Kohara, D. J. Lockhart, Proc. Natl. Acad. Sci. 96, 8825 (1999); A. Goffeau et al., Science 274, 563 (1996). • 2 P. Ross-Macdonald et al., Nature 402, 413 (1999); J. L., DeRisi, V. R. Iyer, P. O. Brown, Science 278, 680 (1997); E. A. Winzeler et al., Science 285, 901 (1999). P. Uetz et al., Nature 403, 623 (2000); T. Ito et al., Proc. Natl. Acad. Sci. USA. 97, 1143 (2000) • 3 H. Zhu, M. Snyder, Curr. Opin. Chem. Biol. 5, 40 (2001). • 4 M. R. Martzen et al., Science 286, 1153 (1999). • 5 H. Zhu et al., Nat. Genet. 26, 283 (2000). • 6 G. MacBeath, S. L. Schreiber, Science 289, 1760 (2000). • 7 A. Caveman, J. Cell Sci. 113, 3543 (2000). • 8 P. Arenkov et al., Anal. Biochem 278, 123 (2000). • 9 D. A. Mitchell, T. K. Marshall, R. J. Deschenes, Yeast 9, 715 (1993). The expression vector pEGH was created by inserting an RGS-HisX6 epitope tag between the GST gene and the polycloning site of pEG(KG). The yeast ORFs were cloned using the strategy described previously (5), except every step was done in a 96-well format. Plasmid DNAs confirmed by DNA sequencing were reintroduced into both yeast (Y258) and E. coli (DH5a). […] 0.1 mM calcium was present in buffers in all subsequent steps. The chip was washed three times with PBS at RT. Cy3-conjugated streptavidin (Jackson IR, USA) (1:5000 dilution) was added to the chip and incubated for 30 min at RT. After extensive washing, the chip was spun dry and scanned using a microarray scanner; the data was subsequently acquired with the GENEPIX™ array densitometry software (Axon, USA). • 12 S. S. Hook, A. R. Means, Annu. Rev. Pharmacol. Toxicol.41, 471 (2001). • 13 M. S. Cyert, R. Kunisawa, D. Kaim, J. Thorner, Proc. Natl. Acad. Sci. USA 88, 7376 (1991). • 14 D. A. Stirling, K. A. Welch, M. J. Stark, EMBO J. 13, 4329 (1994). • 15 F. Bohl, Kruse, EMBO J. 19, 5514 (2000); E. Bertrand et al., Mol. Cell 2, 437 (1998). • 16 D. C. Winter, E. Y. Choe, R. Li, Proc. Nat. Acad Sci. USA 96, 7288 (1999). • 17 C.
substance,measurement,setting,value
"RIM15: yeast protein kinase, regulator of glucose metabolism, GST-HisX6 fusion","binding to PI(4,5)P2 liposomes on membrane","PI(4,5)P2 liposomes","tightly bound PI(4,5)P2"
same,liposome binding in reverse membrane assay,six different liposomes; HRP-conjugated streptavidin,"bound strongest to PI(3)P and PI(4)P and PI(3,4)P2"
same,affinity of PI(4)P relative to control PC,"six different liposomes; membrane assay, signal vs amount of protein",at least three-fold higher
same,"PI(3, 4)P2","PI(3,4)P2 liposomes",4941.00

# Source: US20050182242A1, “Global analysis of protein activities using proteome chips” (priority 2001, published 2005)
